This note sets out measurements from PubChem BioAssay (NCI).

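1) Cells in 96-well plates. 2) Compound, 48 h, 5 concentrations. 3) Linear interpolation between surrounding doses. 4) Unreached endpoint = highest concentration. GI50 = concentration required for 50% inhibition of growth. TGI: concentration producing complete growth inhibition.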

The assay relates to MCF7 breast. The assay is described as follows: NCI anticancer screen, dose series, 48 h.
Take `O=C(c1nc2ccccc2[nH]1)C1C(c2cccc([N+](=O)[O-])c2)C2CC3CCCCC3N2[C@@]12C(=O)Nc1cc(Cl)ccc12` (stereo partly specified): the GI50 was 1.95 µM and the TGI was found to be 7.11 µM.

For the compound `CCOC(=O)Nc1ccc2nc(Sc3ccc(Cl)cc3)sc2c1`, the GI50 was 1.66 µM and the TGI was greater than 58.7 µM.

Regarding `CCOC(=O)CCC(NC(=O)c1ccc(Nc2nc3cc(N)cc(N)c3nc2-c2ccccc2)cc1)C(=O)OCC` (stereo unspecified), the GI50 was 34.8 µM and the TGI is greater than 100 µM.

As to `CCn1c(-c2nonc2N)nc2c(C#CC(C)(C)O)ncc(OCC3CCNCC3)c21`, the GI50 was 6.19 µM and the TGI is greater than 25 µM.

On to `COC(=O)[C@@H](C)C[C@H](Cc1ccccc1)NC(=O)c1csc([C@@H](C[C@H](C(C)C)N(C)C(=O)[C@@H](NC(=O)CN(C)C)C2CC2)OC(C)=O)n1`, for which the GI50 was 0.00258 µM and the TGI is greater than 16.5 µM.

Consider `NC(=S)c1cn(C2OC(CO)C(O)C2O)c2ncnc(N)c12` (stereo unspecified), for which the GI50 is 0.0673 µM and the TGI is 0.303 µM.

For the compound `CO[C@H]1/C=C/C=C/C=C/C[C@H](OC(=O)[C@@H](C)NC(=O)C2CCCCC2)[C@H](C)[C@@H](O)/C(C)=C\CCC2=CC(=O)C=C(NC(=O)C1)C2=O`, the GI50 was 0.13 µM and the TGI came out at 3.54 µM.

`c1ccc(-c2nn(-c3ccccc3)[n+](-c3ccccc3-c3ccccc3)n2)cc1`: the GI50 was 0.462 µM and the TGI was determined as 11.5 µM.

Take `Cc1cncc2cccc(S(=O)(=O)N3CCCNC[C@@H]3C)c12`: the GI50 was 11.5 µM and the TGI is greater than 100 µM.

As for `COc1cc(C2CC(c3cc(Cl)c(C)cc3O)=NN2c2ccc(S(N)(=O)=O)cc2)cc(OC)c1OC` (stereo unspecified), the GI50 was 2.77 µM and the TGI is 10.3 µM.

With `C[C@@H]1CC[C@H]2C(CN(C)CC3=C(C(F)(F)F)O[C@@H]4O[C@@]5(C)CC[C@H]6[C@H](C)CC[C@@H]3[C@@]46OO5)=C(C(F)(F)F)O[C@@H]3O[C@@]4(C)CC[C@@H]1[C@]32OO4`, the GI50 is 1.56 µM and the TGI was greater than 100 µM.

In the case of `O=C1c2ccccc2-c2c1c1ccccc1c(=O)n2CCCNCCO`, the GI50 was 0.102 µM and the TGI is 5.03 µM.

In the case of `Cc1cccc(Cc2cnc(NC(=O)/C=C/c3ccco3)s2)c1`, the GI50 is 0.0331 µM and the TGI was greater than 100 µM.

Take `Cn1ccnc1C(=O)/C=C/c1ccc(CC(=O)Nc2cc(F)c(F)c(F)c2)cc1`: the GI50 was 1.36 µM and the TGI is 6.82 µM.

As for `COc1ccc(C(=O)C(CN(C)C)c2ccccc2)cc1` (stereo unspecified), the GI50 was 1.9 µM and the TGI came to 5.98 µM.

`Nc1cc2ccncc2c2ccccc12`: the GI50 is 19.1 µM and the TGI is greater than 100 µM.

Turning to `N#CSc1cc(-c2nc3ccccc3o2)ccc1N`, the GI50 was 14.5 µM and the TGI was greater than 84.8 µM.

Regarding `S=C1NC2=C(CCOc3c2ccc2ccccc32)C(c2ccc(Cl)cc2)N1` (stereo unspecified), the GI50 is 16.2 µM and the TGI was greater than 100 µM.

In the case of `COc1ccc2c(c1)/C(=N/OC(C)=O)c1c-2c(Nc2ccc(/C(C)=N/OC(C)=O)cc2)nc2ccccc12`, the GI50 is 53 µM and the TGI is greater than 100 µM.

Consider `CCN(CC)Cc1cc(Nc2c3ccc(Cl)cc3nc3c(C)cccc23)ccc1O`, for which the GI50 was 1 µM and the TGI amounted to 2.32 µM.

For the compound `CCN(Cc1cccc(C)c1)c1ccc(CO)c(Cl)c1`, the GI50 is 0.366 µM and the TGI stood at 11.1 µM.

For `Cn1cc(C2=C(c3cn(C)c4cc(Cl)ccc34)C(=O)NC2=O)c2ccccc21`, the GI50 was 0.0972 µM and the TGI is greater than 25 µM.

For `O=C(N/N=C\c1cc(Br)cc(Br)c1O)N/N=C/c1cc(Br)cc(Br)c1O`, the GI50 was 2.89 µM and the TGI was 12.3 µM.

As for `O=C(CN1CCN(c2cc3c(cc2F)c(=O)c(C(=O)O)cn3C2CC2)CC1)Nc1ccc(C(=O)/C=C/c2ccccc2)cc1`, the GI50 was 3.52 µM and the TGI is greater than 100 µM.

For `COc1cc2cc(Oc3ccc(NC(=O)Nc4cc(C(F)(F)F)cc(C(F)(F)F)c4)cc3)c(C)nc2cc1OCCN1CCCCC1`, the GI50 is 1.68 µM and the TGI amounted to 3.43 µM.

As to `Nc1ccc(Sc2ccc3c4c2cccc4c(=O)n2c4ccccc4nc32)cc1`, the GI50 was 2.71 µM and the TGI is 35.3 µM.

`COc1ccc(OC)c(/C=C/C(=O)c2ccc(SC)cc2)c1`: the GI50 is 3.98 µM and the TGI amounted to 12.8 µM.

Turning to `CCN(CC)CCn1nc2c3c(cccc3c1=O)-c1ccccc1-2`, the GI50 is 0.715 µM and the TGI came out at 3.51 µM.
